Laboratory results published in paper PMC9144480 (Pharmaceuticals, 2022).
Entries after “also recorded” stand apart in the source; their conditions may differ. Where two headings read alike, the source gives them in different places.

Columns and labels:
HEK293T cells = experiment: Cytotoxicity, MTT assay; format: cell-based, human; details: 48 h with MeBlu + 48 h culture
Method: For the MTT assay, HEK293T cells were seeded onto 96 wells with the density of 5.0 × 10^4 cells per well. […] After that, cells were incubated with MTT reagent at 37 °C for 2 h. The medium was removed, and dimethyl sulfoxide was added. Cell viability was evaluated using a microplate reader at 570 nm absorbance (SpectraMax iD3, Molecular DEVICES, San Jose, CA, USA).

CD40–CD154 PPI = details: ref [23]; cited from earlier work
HCoV-NL63 S1–hACE2 PPI = target: T1, HCoV-NL63 S1–hACE2 PPI (Homo sapiens, UniProt Q9BYF1); experiment: biochemical; format: binding
T1 construct: HCoV-NL63 S1 (His tag, 40600-V08H); purchased Sino Biological 40600-V08H; 10108-H05H

hACE2 = hACE2 (Homo sapiens, UniProt Q9BYF1); experiment: Surface plasmon resonance (single-cycle kinetics) binding to hACE2; details: data not shown
COVID-19 [1] = details: cited from earlier work
HCV E–CD81 PPI = target: T2, HCV E–CD81 PPI (UniProt P27958+P60033); experiment: biochemical; format: binding
T2 construct: hepatitis C virus envelope glycoprotein E with CD81; purchased R&D Systems 9146-HC; 9144-CD

[2] = tested on: pseudovirus bearing SARS-CoV-2 S protein (original strain); experiment: microbe, parasite or virus in culture; format: cell-based
SARS-CoV-2 pseudovirus = experiment: microbe, parasite or virus in culture; details: Severe acute respiratory syndrome-related coronavirus, HEK-293T, read-out: IC50, SARS-CoV-2 pseudovirus cell entry
[3] = ref [19],[21],[22]; cited from earlier work
TNF-R1−TNFα PPI = details: ref [23]; cited from earlier work
[4] = cited from earlier work
IL-2–IL-2Rα PPI = target: T3, IL-2–IL-2Rα PPI (Homo sapiens, UniProt P01589+P60568); experiment: biochemical; format: binding
T3 construct: purchased ACROBiosystems IL2-H52H8; ILA-H5251

SARS-CoV-2 spike RBD = target: T4, SARS-CoV-2 spike RBD (Severe acute respiratory syndrome coronavirus 2, UniProt P0DTC2); experiment: Surface plasmon resonance binding to spike RBD; details: single and multicycle kinetics; qualitative, not 1:1 binding
T4 construct: SARS-CoV-2 spike RBD (His-tagged, Arg319-Ph541); RayBiotech; His tag; purchased RayBiotech
Method: SPR was performed at Reaction Biology (Malvern, PA, USA) using single and multicycle kinetics to assess the binding to the SARS-CoV-2 spike RBD (His-tagged, Arg319-Ph541; RayBiotech; Peachtree Corners, GA, USA) and determine the kinetics/affinity. Measurements were performed on a Biacore 8K (Cytiva) with a series S CM5 (Cytiva) sensor chip. Spike RBD was immobilized via amine coupling at pH 5.5 to immobilization levels of ~1500–2300 RU (single-cycle) and ~2500 RU (multi-cycle). A running buffer of PBS-p+ (20 mM phosphate buffer with 2.7 mM KCl, 137 mM NaCl, and 0.05% surfactant Tween20) with 1% DMSO was used. All data was solvent corrected, reference subtracted, and blank subtracted using the Biacore Insight Evaluation Software. To try and obtain kinetic/affinity parameters, the data was evaluated using a 1:1 kinetic binding model. However, the binding behavior appears to be more complex than can be approximated using a 1:1 binding model, which prevents a quantitative analysis of the SPR binding data.

COVID-19 [5] = details: cited from earlier work; remark: listed apart in the source
SARS-CoV-2 [6] = details: read-out: IC50, SARS-CoV-2 antiviral activity; Vero E6; ref [36]; cited from earlier work
[7] = tested on: influenza-like illness during COVID-19 pandemic; details: 2500 patients, MeBlu 75 mg t.i.d., March 2020; ref [49]; cited from earlier work
SARS-CoV-2 [8] = details: cited from earlier work
SARS-CoV-2 (B.1.5) = experiment: microbe, parasite or virus in culture; format: cell-based; details: Severe acute respiratory syndrome coronavirus 2, Vero C1008, 48 h, read-out: IC50, inhibition of SARS-CoV-2 replication
[9] = tested on: VSV-SARS-CoV-2-Sdel18 pseudovirus; details: Vero E6; ref [40]; read-out: IC50, VSV-SARS-CoV-2-Sdel18 pseudovirus entry; cited from earlier work
SARS-CoV-2 [10] = details: read-out: IC50, concentration levels that seem to provide antiviral activity; overall range over this work and published studies; ref Table 1; cited from earlier work
hCoV-229E = details: read-out: IC50, image-based multicycle replication assay; Huh7; ref [41]; cited from earlier work
COVID-19 [11] = details: human, in vivo, iv, 1 mg/kg; cited from earlier work
influenza virus H1N1 = details: ref [36]; cited from earlier work
[12] = Pseudovirus, HEK-293T, read-out: IC50, inhibition of cell entry of pseudovirus

hACE2, sequence (Q9BYF1 18-805): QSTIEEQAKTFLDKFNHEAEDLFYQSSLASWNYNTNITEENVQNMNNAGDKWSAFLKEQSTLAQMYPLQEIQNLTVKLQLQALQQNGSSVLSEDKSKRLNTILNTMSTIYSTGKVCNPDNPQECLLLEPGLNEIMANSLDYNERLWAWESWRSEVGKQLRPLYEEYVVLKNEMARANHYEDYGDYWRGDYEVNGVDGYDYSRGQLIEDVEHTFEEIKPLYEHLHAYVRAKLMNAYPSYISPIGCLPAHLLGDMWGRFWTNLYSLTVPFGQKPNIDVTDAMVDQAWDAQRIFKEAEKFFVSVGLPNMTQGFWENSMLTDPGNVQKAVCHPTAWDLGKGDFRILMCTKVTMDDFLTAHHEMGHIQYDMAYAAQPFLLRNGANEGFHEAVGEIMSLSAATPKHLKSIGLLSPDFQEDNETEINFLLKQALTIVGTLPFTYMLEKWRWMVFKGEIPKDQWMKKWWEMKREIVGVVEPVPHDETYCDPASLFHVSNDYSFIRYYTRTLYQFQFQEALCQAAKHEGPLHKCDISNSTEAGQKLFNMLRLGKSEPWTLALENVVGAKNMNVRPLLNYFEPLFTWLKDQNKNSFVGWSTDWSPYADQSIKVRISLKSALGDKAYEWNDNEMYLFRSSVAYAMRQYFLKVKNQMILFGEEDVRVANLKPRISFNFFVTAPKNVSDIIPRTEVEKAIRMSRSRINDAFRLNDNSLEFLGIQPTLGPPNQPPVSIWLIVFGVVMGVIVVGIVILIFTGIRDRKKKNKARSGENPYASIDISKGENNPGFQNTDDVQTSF
T2 sequence (P60033 113-201): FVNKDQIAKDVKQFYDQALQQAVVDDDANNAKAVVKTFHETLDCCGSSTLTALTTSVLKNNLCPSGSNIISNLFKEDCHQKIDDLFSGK
T2 sequence (P27958 384-746): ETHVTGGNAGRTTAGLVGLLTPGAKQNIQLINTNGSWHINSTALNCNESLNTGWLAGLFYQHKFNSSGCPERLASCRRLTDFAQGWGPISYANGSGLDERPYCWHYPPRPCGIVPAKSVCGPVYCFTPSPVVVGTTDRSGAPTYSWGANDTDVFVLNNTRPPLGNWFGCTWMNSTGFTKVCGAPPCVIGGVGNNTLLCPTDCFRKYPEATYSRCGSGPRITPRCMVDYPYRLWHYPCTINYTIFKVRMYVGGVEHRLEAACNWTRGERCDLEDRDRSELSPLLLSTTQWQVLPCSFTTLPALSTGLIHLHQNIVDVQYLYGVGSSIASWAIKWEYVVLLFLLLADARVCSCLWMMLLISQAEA
T1 sequence (Q9BYF1 18-740): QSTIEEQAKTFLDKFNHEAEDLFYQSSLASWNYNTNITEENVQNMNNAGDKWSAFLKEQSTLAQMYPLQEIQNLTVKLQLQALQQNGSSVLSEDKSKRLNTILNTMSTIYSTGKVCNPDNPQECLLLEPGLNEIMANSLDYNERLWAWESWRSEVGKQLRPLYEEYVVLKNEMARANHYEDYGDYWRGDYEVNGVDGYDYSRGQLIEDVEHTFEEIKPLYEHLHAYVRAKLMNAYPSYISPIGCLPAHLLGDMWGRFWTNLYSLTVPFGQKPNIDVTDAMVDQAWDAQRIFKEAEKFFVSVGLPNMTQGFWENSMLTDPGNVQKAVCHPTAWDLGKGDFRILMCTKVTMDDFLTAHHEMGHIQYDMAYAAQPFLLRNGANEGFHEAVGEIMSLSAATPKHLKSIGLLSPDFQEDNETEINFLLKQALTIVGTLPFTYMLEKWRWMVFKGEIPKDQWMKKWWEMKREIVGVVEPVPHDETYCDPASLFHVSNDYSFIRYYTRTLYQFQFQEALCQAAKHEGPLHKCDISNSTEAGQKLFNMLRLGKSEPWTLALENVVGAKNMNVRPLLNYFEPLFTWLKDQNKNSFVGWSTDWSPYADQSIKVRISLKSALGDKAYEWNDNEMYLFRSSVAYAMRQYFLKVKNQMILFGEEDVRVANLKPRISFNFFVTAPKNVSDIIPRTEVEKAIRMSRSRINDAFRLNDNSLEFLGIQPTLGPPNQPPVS
T3 sequence (P01589 22-213): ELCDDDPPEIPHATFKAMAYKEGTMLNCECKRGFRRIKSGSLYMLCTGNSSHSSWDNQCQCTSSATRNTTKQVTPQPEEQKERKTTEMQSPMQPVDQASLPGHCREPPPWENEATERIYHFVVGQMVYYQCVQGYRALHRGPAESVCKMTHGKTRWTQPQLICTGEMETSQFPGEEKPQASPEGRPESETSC
T3 sequence (P60568 21-153): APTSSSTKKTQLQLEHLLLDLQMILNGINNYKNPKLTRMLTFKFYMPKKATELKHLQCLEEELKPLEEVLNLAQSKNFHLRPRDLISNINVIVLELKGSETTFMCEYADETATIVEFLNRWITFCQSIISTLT

CN(C)c1ccc2nc3ccc(=[N+](C)C)cc-3sc2c1 [MeBlu, methylene blue]
TC50, cell viability (MTT) (HEK293T cells): 57.9 µM | inhibition of CD40–CD154 (CD40L) PPI (CD40–CD154 PPI): inhibited; also recorded: low micromolar | IC50 (HCoV-NL63 S1–hACE2 PPI): 1.93 µM | SPR binding to hACE2 (hACE2): low micromolar range | treated patients who responded well to the treatment (COVID-19 [1]; Phase 1, MeBlu 1 mg/kg with vitamin C and N-acetyl cysteine, critically ill, ref [50]): four of the five | oxygen saturation (SpO2) and respiratory distress (COVID-19 [1]; Phase 2, 80 hospitalized patients with severe COVID-19, p < 0.001, ref [51]): […] | hospital stays (COVID-19 [1]; Phase 2, vs. 11.7 ± 6.6 without MeBlu, p = 0.004, ref [51]): 7.3 ± 4.7 days | mortality (COVID-19 [1]; Phase 2, vs. 22.5% without MeBlu, ref [51]): 12.5% | hospital stays (COVID-19 [1]; Phase 3, oral MeBlu added to standard care, 223 patients, vs. 10.6 ± 9.2, p < 0.001, ref [52]): 6.2 ± 3.1 | mortality (COVID-19 [1]; Phase 3, vs. 21.4%, p = 0.07, ref [52]): 12.2% | IC50 (HCV E–CD81 PPI): 0.8 µM | IC50 ([2]; Pseudovirus, HEK-293T, read-out: IC50, inhibition of cell entry of pseudovirus, BacMam pseudovirus, original strain, HEK293T): 3.6 µM | IC50 ([2]; read-out: IC50, inhibition of cell entry of pseudovirus, BacMam pseudovirus, original strain, HEK293T): 3.64 µM | IC50 (SARS-CoV-2 pseudovirus): 3 to 5 µM | dose above which undesired side effects (nausea, vomiting, hemolysis) are increasingly common [3]: higher than 7 mg/kg | inhibition of TNF-R1–TNFα PPI (TNF-R1−TNFα PPI): inhibited; also recorded: low micromolar | trough levels ([4]; 207 mg/day (69 mg, t.i.d., p.o.), ref [43]): 6 to 7 µM | peak blood concentration ([4]; after 500 mg p.o., ref [42]): […] | oral bioavailability (F) ([4]; ref [42]): ≈ 80% | terminal elimination half-life (t1/2) ([4]; ref [42]): ≈ 14 h | IC50 (IL-2–IL-2Rα PPI): 0.37 µM | SPR binding to SARS-CoV-2 spike RBD (SARS-CoV-2 spike RBD): low‐micromolar binding; also recorded: low micromolar range | effects on oxygen saturation and requirements (COVID-19 [5]; MeBlu inhalation, seven patients with severe COVID-19 and ARDS, ref [56]): […] | hospital stays (COVID-19 [5]; nebulized MeBlu, observational study, 63 patients, vs. 12, ref [55]): 9.17 days | IC50 (SARS-CoV-2 [6]): […] | patients who developed influenza-like illness [7]: none | IC50 (SARS-CoV-2 [8]; read-out: IC50, SARS-CoV-2 antiviral activity, Vero E6, clinically isolated strains (IHUMI-3 and IHUMI-6), ref [37],[38]): […] | IC50 (SARS-CoV-2 [8]; read-out: IC50, inhibition of SARS-CoV-2 replication, Vero E6, clinically isolated strain IHUMI-3, ref [38]): […] | IC50 (SARS-CoV-2 [8]; read-out: IC50, inhibition of SARS-CoV-2 replication, Vero E6, clinically isolated strain IHUMI-6, ref [38]): […] | IC50 (SARS-CoV-2 [8]; read-out: IC50, inhibition of SARS-CoV-2 replication, Vero E6, non-photoactivated MeBlu, ref [37]): […] | IC50 (SARS-CoV-2 (B.1.5)): […] | IC50 [9]: 9 µM | IC50 (SARS-CoV-2 [10]): […] | IC50 (hCoV-229E): 1.4 µM | side effects or adverse events (COVID-19 [11]): no major side effects or adverse events | activity against influenza virus H1N1 (influenza virus H1N1): Also active against influenza virus H1N1

O=S(=O)(O)c1ccc(N=Nc2c(O)ccc3cc(S(=O)(=O)O)ccc23)cc1 [SY(FD&C#6), sunset yellow FCF]
IC50 [2, 12]: > 500 µM

Nc1c(/N=N/c2ccc([N+](=O)[O-])cc2)c(S(=O)(=O)O)cc2cc(S(=O)(=O)O)c(/N=N/c3ccccc3)c(O)c12 [NBlBk, naphthol blue black]
IC50 [2, 12]: > 500 µM

CCN(CCO)CCCC(C)Nc1ccnc2cc(Cl)ccc12 (stereo not drawn) [HCQ, hydroxychloroquine]
IC50 [2, 12]: > 500 µM
